Our source for the IC50 values is patent publication US20240025884A1 (Dong-A ST Co., Ltd., priority 2022, published 2024).

Molecules are shown by their SMILES.

This assay deals with GCN2 (Homo sapiens (Human), UniProt Q9P2K8). Description: GCN2 Biochemical Assay (TR-FRET, GFP-eIF2S1 substrate phosphorylation). The following applies: read-out: IC50 (GCN2 Inhibitory Activity). The essentials: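 TR-FRET readout (Ex 340, Em 490/520 nm) after 2–3 h with Tb-labelled phospho-eIF2S1 antibody in stop mix, following a 70 min room-temperature kinase step. Reaction: in-house GCN2, GFP-eIF2S1, ATP, tRNA in Tris pH 7.5 (2× stocks 1.6 nM, 50 nM, 0.2 mM); compounds tested at 10 concentrations, with a phospho-substrate artifact counter-plate.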
Chain of GCN2 (Q9P2K8 whole entry): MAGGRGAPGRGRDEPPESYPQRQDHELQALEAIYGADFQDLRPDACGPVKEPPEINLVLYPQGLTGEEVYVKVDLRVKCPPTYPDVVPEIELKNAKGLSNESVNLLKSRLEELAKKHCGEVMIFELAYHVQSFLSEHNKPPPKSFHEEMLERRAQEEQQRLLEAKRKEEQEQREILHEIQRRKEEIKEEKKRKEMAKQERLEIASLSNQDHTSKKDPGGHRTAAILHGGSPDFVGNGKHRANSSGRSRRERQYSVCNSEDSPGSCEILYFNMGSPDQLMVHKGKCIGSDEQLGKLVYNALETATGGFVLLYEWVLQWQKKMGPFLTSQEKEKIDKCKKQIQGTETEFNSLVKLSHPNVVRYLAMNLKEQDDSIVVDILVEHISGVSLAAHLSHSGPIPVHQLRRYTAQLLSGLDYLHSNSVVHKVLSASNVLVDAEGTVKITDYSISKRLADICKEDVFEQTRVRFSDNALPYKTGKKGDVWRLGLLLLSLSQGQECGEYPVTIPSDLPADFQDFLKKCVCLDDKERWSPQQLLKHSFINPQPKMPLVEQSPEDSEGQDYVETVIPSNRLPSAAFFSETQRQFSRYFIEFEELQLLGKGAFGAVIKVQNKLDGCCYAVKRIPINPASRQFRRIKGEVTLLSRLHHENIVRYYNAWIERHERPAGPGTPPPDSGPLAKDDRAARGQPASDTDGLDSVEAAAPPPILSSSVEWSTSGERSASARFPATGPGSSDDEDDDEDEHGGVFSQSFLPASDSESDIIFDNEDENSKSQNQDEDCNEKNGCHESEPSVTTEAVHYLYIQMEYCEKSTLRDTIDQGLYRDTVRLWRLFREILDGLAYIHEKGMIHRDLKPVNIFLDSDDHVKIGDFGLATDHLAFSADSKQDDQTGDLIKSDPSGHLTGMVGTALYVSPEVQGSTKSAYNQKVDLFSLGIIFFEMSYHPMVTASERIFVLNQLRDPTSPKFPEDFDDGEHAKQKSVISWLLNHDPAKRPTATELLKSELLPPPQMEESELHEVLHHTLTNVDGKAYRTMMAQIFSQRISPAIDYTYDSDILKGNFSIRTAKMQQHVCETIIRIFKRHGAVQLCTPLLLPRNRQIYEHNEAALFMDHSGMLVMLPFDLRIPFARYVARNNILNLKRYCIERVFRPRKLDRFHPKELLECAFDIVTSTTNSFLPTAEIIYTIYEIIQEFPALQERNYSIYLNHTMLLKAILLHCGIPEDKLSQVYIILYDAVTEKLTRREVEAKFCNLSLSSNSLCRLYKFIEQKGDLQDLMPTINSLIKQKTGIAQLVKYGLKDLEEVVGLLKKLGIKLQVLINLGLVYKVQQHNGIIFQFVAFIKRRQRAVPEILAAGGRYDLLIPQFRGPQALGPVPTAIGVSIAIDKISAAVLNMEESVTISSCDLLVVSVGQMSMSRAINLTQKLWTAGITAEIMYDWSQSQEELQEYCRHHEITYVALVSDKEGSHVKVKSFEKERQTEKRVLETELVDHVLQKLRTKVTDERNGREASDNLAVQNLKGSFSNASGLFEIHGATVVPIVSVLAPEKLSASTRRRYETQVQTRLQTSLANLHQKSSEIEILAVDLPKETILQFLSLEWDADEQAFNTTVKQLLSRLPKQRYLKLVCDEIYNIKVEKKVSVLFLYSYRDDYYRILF
Regarding `CCCCNc1cc(O[C@H]2CCN(CC(=O)Nc3cccc4c(-c5nc(Nc6cc(C)n(C)n6)ncc5C)c[nH]c34)C2)ncn1` [Example 144, (S)-2-(3-((6-(butylamino)pyrimidin-4-yl)oxy)pyrrolidin-1-yl)-N-(3-(2-((1,5-dimethyl-1H-pyrazol-3-yl)amino)-5-methylpyrimidin-4-yl)-1H-indol-7-yl)acetamide], the IC50 – broadly, the concentration needed to halve the response being measured – was below 10 nM.

In the case of `Cc1cnc(Nc2cc(C)n(C)n2)nc1-c1c[nH]c2c(N3Cc4c(cccc4-c4ccccc4C(F)(F)F)C3=O)cccc12` [Example 434, 2-(3-(2-((1,5-dimethyl-1H-pyrazol-3-yl)amino)-5-methylpyrimidin-4-yl)-1H-indol-7-yl)-4-(2-(trifluoromethyl)phenyl)isoindolin-1-one], the IC50 fell in the range of 100 to 1000 nM.

As to `CNc1nccc(O[C@H]2CCN(CC(=O)Nc3cccc4c(-c5nc(Nc6cc(C)n(C)n6)ncc5C)c[nH]c34)C2)n1` [Example 197, (S)-N-(3-(2-((1,5-dimethyl-1H-pyrazol-3-yl)amino)-5-methylpyrimidin-4-yl)-1H-indol-7-yl)-2-(3-((2-(methylamino)pyrimidin-4-yl)oxy)pyrrolidin-1-yl)acetamide], the half-maximal inhibitory concentration (IC50) is below 10 nM.

For `COC(=O)c1[nH]ccc1O[C@H]1CCN(CC(=O)Nc2cccc3c(-c4nc(Nc5cc(C)n(C)n5)ncc4C)c[nH]c23)C1` [Example 120, methyl (S)-3-((1-(2-((3-(2-((1,5-dimethyl-1H-pyrazol-3-yl)amino)-5-methylpyrimidin-4-yl)-1H-indol-7-yl)amino)-2-oxoethyl)pyrrolidin-3-yl)oxy)-1H-pyrrole-2-carboxylate], the 50% inhibitory concentration (IC50) is below 10 nM.

For `Cc1cnc(Nc2cc(C)n(C)n2)nc1-c1c[nH]c2c(N3Cc4cccc(NC(=O)C5CCCCC5)c4C3=O)cccc12` [Example 292, N-(2-(3-(2-((1,5-dimethyl-1H-pyrazol-3-yl)amino)-5-methylpyrimidin-4-yl)-1H-indol-7-yl)-3-oxoisoindolin-4-yl)cyclohexanecarboxamide], the IC50 is 100 to 1000 nM.

Take `Cc1cnc(Nc2cc(C)n(C)n2)nc1-c1c[nH]c2c(N3Cc4c(cccc4-c4ccnc(O)c4)C3=O)cccc12` [Example 446, 2-(3-(2-((1,5-dimethyl-1H-pyrazol-3-yl)amino)-5-methylpyrimidin-4-yl)-1H-indol-7-yl)-4-(2-hydroxypyridin-4-yl)isoindolin-1-one]: the IC50 is below 10 nM.

In the case of `Cc1cnc(O[C@H]2CCN(CC(=O)Nc3cccc4c(-c5nc(Nc6cc(C)n(C)n6)ncc5C)c[nH]c34)C2)nc1NC1CC1` [Example 191, (S)-2-(3-((4-(cyclopropylamino)-5-methylpyrimidin-2-yl)oxy)pyrrolidin-1-yl)-N-(3-(2-((1,5-dimethyl-1H-pyrazol-3-yl)amino)-5-methylpyrimidin-4-yl)-1H-indol-7-yl)acetamide], the IC50 is below 10 nM.

As for `Cc1cnc(Nc2cc(C)n(C)n2)nc1-c1c[nH]c2c(NC(=O)CN3CC[C@@H](Oc4ccncc4)C3)cccc12` [Example 77, (R)-N-(3-(2-((1,5-dimethyl-1H-pyrazol-3-yl)amino)-5-methylpyrimidin-4-yl)-1H-indol-7-yl)-2-(3-(pyridin-4-yloxy)pyrrolidin-1-yl)acetamide], the IC50 is 10 to 100 nM.

For `Cc1cnc(Nc2cc(C)n(C)n2)nc1-c1c[nH]c2c(NC(=O)CN3CC[C@H](Oc4cc(C(F)(F)F)nc(NC5CC5)n4)C3)cccc12` [Example 237, (S)-2-(3-((2-(cyclopropylamino)-6-(trifluoromethyl)pyrimidin-4-yl)oxy)pyrrolidin-1-yl)-N-(3-(2-((1,5-dimethyl-1H-pyrazol-3-yl)amino)-5-methylpyrimidin-4-yl)-1H-indol-7-yl)acetamide], the 50% inhibitory concentration (IC50) fell in the range of 10 to 100 nM.

Take `Cc1cnc(Nc2cc(C)n(C)n2)nc1-c1c[nH]c2c(N3Cc4c(cccc4-c4ccc[nH]4)C3=O)cccc12` [Example 442, 2-(3-(2-((1,5-dimethyl-1H-pyrazol-3-yl)amino)-5-methylpyrimidin-4-yl)-1H-indol-7-yl)-4-(1H-pyrrol-2-yl)isoindolin-1-one]: the IC50 is 10 to 100 nM.

For `Cc1cnc(Nc2cc(C)n(C)n2)nc1-c1c[nH]c2c(N3Cc4c(NC(=O)C5CC=CC5)cccc4C3=O)cccc12` [Example 310, N-(2-(3-(2-((1,5-dimethyl-1H-pyrazol-3-yl)amino)-5-methylpyrimidin-4-yl)-1H-indol-7-yl)-1-oxoisoindolin-4-yl)cyclopent-3-ene-1-carboxamide], the concentration for half-maximal inhibition (IC50) was below 10 nM.

Turning to `Cc1cnc(Nc2cc(C)n(C)n2)nc1-c1c[nH]c2c(NC(=O)CN3CC(Oc4cccnc4)C3)cccc12` [Example 30, N-(3-(2-((1,5-dimethyl-1H-pyrazol-3-yl)amino)-5-methylpyrimidin-4-yl)-1H-indol-7-yl)-2-(3-(pyridin-3-yloxy)azetidin-1-yl)acetamide], the half-maximal inhibitory concentration (IC50) fell in the range of 100 to 1000 nM.

As to `Cc1cnc(Nc2cc(C)n(C)n2)nc1-c1c[nH]c2c(N3Cc4c(cccc4-c4ccc(N5CCOCC5)nc4)C3=O)cccc12` [Example 425, 2-(3-(2-((1,5-dimethyl-1H-pyrazol-3-yl)amino)-5-methylpyrimidin-4-yl)-1H-indol-7-yl)-4-(6-morpholinopyridin-3-yl)isoindolin-1-one], the IC50 was below 10 nM.

Regarding `COc1ccc(-c2cccc3c2CN(c2cccc4c(-c5nc(Nc6cc(C)n(C)n6)ncc5C)c[nH]c24)C3=O)cn1` [Example 406, 2-(3-(2-((1,5-dimethyl-1H-pyrazol-3-yl)amino)-5-methylpyrimidin-4-yl)-1H-indol-7-yl)-4-(6-methoxypyridin-3-yl)isoindolin-1-one], the IC50 fell in the range of 10 to 100 nM.

Consider `Cc1cc(Nc2nccc(-c3c[nH]c4c(NC(=O)CN5CC[C@H](Oc6cc(NC7CC7)ncn6)C5)cccc34)n2)nn1C` [Example 7, (S)-2-(3-((6-(cyclopropylamino)pyrimidin-4-yl)oxy)pyrrolidin-1-yl)-N-(3-(2-((1,5-dimethyl-1H-pyrazol-3-yl)amino)pyrimidin-4-yl)-1H-indol-7-yl)acetamide], for which the concentration for half-maximal inhibition (IC50) was below 10 nM.

Consider `Cc1cnc(Nc2cc(C)n(C)n2)nc1-c1c[nH]c2c(NC(=O)CN3CC[C@H](Oc4ncc(F)c(N5CCCCC5)n4)C3)cccc12` [Example 187, (S)-N-(3-(2-((1,5-dimethyl-1H-pyrazol-3-yl)amino)-5-methylpyrimidin-4-yl)-1H-indol-7-yl)-2-(3-((5-fluoro-4-(piperidin-1-yl)pyrimidin-2-yl)oxy)pyrrolidin-1-yl)acetamide], for which the IC50 is below 10 nM.

In the case of `Cc1cnc(Nc2cc(C)n(C)n2)nc1-c1c[nH]c2c(NC(=O)CN3CC[C@H](Oc4ncc(-c5cccnc5)cn4)C3)cccc12` [Example 255, (S)-N-(3-(2-((1,5-dimethyl-1H-pyrazol-3-yl)amino)-5-methylpyrimidin-4-yl)-1H-indol-7-yl)-2-(3-((5-(pyridin-3-yl)pyrimidin-2-yl)oxy)pyrrolidin-1-yl)acetamide], the IC50 fell in the range of 10 to 100 nM.

With `Cc1cnccc1-c1nccc2c1CN(c1cccc3c(-c4nc(Nc5cc(C)n(C)n5)ncc4C)c[nH]c13)C2=O` [Example 506, 2-(3-(2-((1,5-dimethyl-1H-pyrazol-3-yl)amino)-5-methylpyrimidin-4-yl)-1H-indol-7-yl)-4-(3-methylpyridin-4-yl)-2,3-dihydro-1H-pyrrolo[3,4-c]pyridin-1-one], the IC50 is below 10 nM.

With `Cc1cnc(Nc2cc(C)n(C)n2)nc1-c1c[nH]c2c(NC(=O)CN3CC[C@H](Oc4ccnc(NC5CCC5)n4)C3)cccc12` [Example 208, (S)-2-(3-((2-(cyclobutylamino)pyrimidin-4-yl)oxy)pyrrolidin-1-yl)-N-(3-(2-((1,5-dimethyl-1H-pyrazol-3-yl)amino)-5-methylpyrimidin-4-yl)-1H-indol-7-yl)acetamide], the IC50 is below 10 nM.

As to `Cc1cnc(Nc2cc(C)n(C)n2)nc1-c1c[nH]c2c(N3Cc4c(NC(=O)C5CCC(=O)CC5)cccc4C3=O)cccc12` [Example 320, N-(2-(3-(2-((1,5-dimethyl-1H-pyrazol-3-yl)amino)-5-methylpyrimidin-4-yl)-1H-indol-7-yl)-1-oxoisoindolin-4-yl)-4-oxocyclohexane-1-carboxamide], the half-inhibitory concentration (IC50) was below 10 nM.

Take `Cc1cnc(Nc2cc(C)n(C)n2)nc1-c1c[nH]c2c(N3Cc4c(cccc4C4=CCS(=O)(=O)CC4)C3=O)cccc12` [Example 468, 2-(3-(2-((1,5-dimethyl-1H-pyrazol-3-yl)amino)-5-methylpyrimidin-4-yl)-1H-indol-7-yl)-4-(1,1-dioxido-3,6-dihydro-2H-thiopyran-4-yl)isoindolin-1-one]: the IC50 was below 10 nM.

Regarding `Cc1cnc(Nc2cc(C)n(C)n2)nc1-c1c[nH]c2c(N3Cc4ccc(NC(=O)C5CC5)cc4C3=O)cccc12` [Example 291, N-(2-(3-(2-((1,5-dimethyl-1H-pyrazol-3-yl)amino)-5-methylpyrimidin-4-yl)-1H-indol-7-yl)-3-oxoisoindolin-5-yl)cyclopropanecarboxamide], the IC50 was below 10 nM.

Regarding `Cc1cnc(Nc2cc(C)n(C)n2)nc1-c1c[nH]c2c(N3Cc4c(cccc4-c4ccccc4O)C3=O)cccc12` [Example 441, 2-(3-(2-((1,5-dimethyl-1H-pyrazol-3-yl)amino)-5-methylpyrimidin-4-yl)-1H-indol-7-yl)-4-(2-hydroxyphenyl)isoindolin-1-one], the IC50 was 10 to 100 nM.

In the case of `Cc1cnc(Nc2cc(C)n(C)n2)nc1-c1c[nH]c2c(N3Cc4c(NC(=O)c5ccoc5)cccc4C3=O)cccc12` [Example 338, N-(2-(3-(2-((1,5-dimethyl-1H-pyrazol-3-yl)amino)-5-methylpyrimidin-4-yl)-1H-indol-7-yl)-1-oxoisoindolin-4-yl)furan-3-carboxamide], the 50% inhibitory concentration (IC50) was in the range of 10 to 100 nM.

As to `COc1cc(-c2cccc3c2CN(c2cccc4c(-c5nc(Nc6cc(C)n(C)n6)ncc5C)c[nH]c24)C3=O)ccn1` [Example 445, 2-(3-(2-((1,5-dimethyl-1H-pyrazol-3-yl)amino)-5-methylpyrimidin-4-yl)-1H-indol-7-yl)-4-(2-methoxypyridin-4-yl)isoindolin-1-one], the IC50 was below 10 nM.
